Measured values as given in patent publication US20230010958A1, “CANNABINOID AND LYCOPENE ANTI-INFLAMMATORY SYNERGISTIC COMBINATIONS” (LYCORED LTD., priority 2019, published 2023).

How the values were obtained:
[1] = test system: Macrophages; assay: MTT cell viability assay with CBD; assay type: cell-based; settings: increasing CBD concentrations (FIG. 2)
Protocol: FIG. 2 includes a vertical bar graph showing the effect of CBD on cell viability. MTT assay was performed in the presence of increasing CBD concentrations.
The inventors initially examined the sole effect of cannabidiol (CBD) on nitric oxide (NO) production. Macrophages were stimulated, and NO production was examined in the presence of increasing CBD concentrations, ranging from 0.05 µM to 50 µM.

[2] = test system: nitric oxide (NO) production; assay: NO production assay in LPS-stimulated peritoneal macrophages (Griess reagent); assay type: cell-based, mice; settings: CBD alone, 0.05 µM to 50 µM (FIG. 1)
Protocol: Macrophage isolation and cell culture - Peritoneal macrophages were collected from the peritoneal cavity of 6-8-week-old male ICR mice (Harlan, Israel) given an intraperitoneal injection of 1.5 ml of thioglycollate broth (4%) 4 days before harvest. Peritoneal macrophages were washed three times with PBS and if needed a hypotonic lysis of erythrocytes was performed, yielding 90-95% purity. The macrophages were identified by fluorescence-activated cell sorting (FACS) analysis using FITC-conjugated rat antimouse F4/80 (MCA497F; Serotec, Oxford, England) by flow microfluorimetry on FACS (Becton Dickinson, Mountain View, CA). For each sample, 10,000 light scatter-gated viable cells were analyzed. […]
To the control groups, appropriate volumes of DMSO (0.1-0.2%) were added. The percent inhibition of each experimental group was calculated comparatively to the relevant and corresponding control.
NO production assay —NO levels in supernatants of cell cultures were determined by assaying nitrite levels using Griess reagent and sodium nitrite as a standard.
Peritoneal macrophages were incubated with the compounds 1 h before addition of LPS and cultured overnight. NO production was determined in the supernatant of the cultures and the % of inhibition from untreated macrophages was determined. […]

[3] = test system: nitric oxide (NO); assay: NO production in bone marrow derived macrophages treated with an inflammatory stimulus (lycopene, CBDA); assay type: cell-based; settings: CBDA alone, 2.5 µM, 5 µM, 10 µM (FIG. 8A)
Protocol: Bone marrow derived macrophages were treated with an inflammatory stimulus in the presence of various concentration of lycopene, cannabidiolic acid (CBDA), tomato extract and hemp extract in vitro. As an inflammatory outcome, nitric oxide (NO) was monitored.
Full Study with test material and benchmarks - Cells were treated with tomato and hemp extract for 24 hours to determine viability. Cells were then treated as follows; (1) medium alone (unstimulated control), (2) LPS stimulation- 10 µg/mL, (3) each crude extracts (Tomato/Hemp) at concentration of IC50, (4) LPS + crude extracts, (5) control inhibitor, and (6) LPS + control inhibitor. The tomato and hemp extract and benchmarks (lycopene, CBDA) were tested in 5 different rations; 1:10, 1:5, 1:1, 5:1, 10:1.
Nitric oxide production was determined for each treatment.

Compound: C=C(C)[C@@H]1CCC(C)=C[C@H]1c1c(O)cc(CCCCC)cc1O [CBD, 2-[(6R)-3-Methyl-6-prop-l-en-2-yl-lcyclohex-2-envyl]-5pentylbenzene-l,3-diol]
- CBD concentration toxic to the cells (cell viability, MTT) [1]: ≥ 25 µM
- % of NO production inhibition [2]: increased in a CBD dose-dependent manner

Compound: C=C(C)[C@@H]1CCC(C)=C[C@H]1c1c(O)cc(CCCCC)c(C(=O)O)c1O [CBDA, cannabidiolic acid]
- inhibition of NO production [3]: inhibits NO production in a dose dependent manner
